Reference: patent US10870658B2, “Aldose reductase inhibitors and methods of use thereof” (The Trustees of Columbia University in the City of New York, priority 2016, dated 2020)
≈ marks a conversion by molar mass, not a printed value.

Columns and labels:
[1] = Equilibrium solubility in phosphate buffer, pH 7.4; format: physicochemical; settings: aqueous buffer, thermodynamic from solid, phosphate buffer pH 7.4, shaken overnight at room temperature, LC-MS/MS
Method: Equilibrium Solubility in Phosphate Buffer, pH 7.4:
The equilibrium solubility of test articles was measured in pH 7.4 aqueous buffers. […] At least 1 mg of powder for each test article was combined with 1 mL of buffer to make a≥1 mg/mL mixture. These samples were shaken on a Thermomixer® overnight at room temperature. The samples were then centrifuged for 10 minutes at 10,000 rpm. […] Standard concentrations ranged from 1.0 μM to 1.0 nM.

physchem = settings: octanol/phosphate buffer, pH 7.4
Method: Octanol/Buffer Partition Coefficient (Log D) at pH 7.4:
The octanol/buffer partition coefficient of three test articles was measured at pH 7.4. The pH 7.4 buffer was prepared by combining 50 mL of 0.2 M solution of KH2PO4 with 150 mL of dH2O, and then adjusting to pH 7.4 with 10 N NaOH. In a single incubation, 15 μL of a 10 mM DMSO solution of each test article (100 μM) was added to test tubes which contained 0.75 mL of octanol and 0.75 mL of pH 7.4 phosphate buffer. Testosterone was also introduced to each tube as an internal control, also at a dosing concentration of 100 μM. These samples were gently mixed on a benchtop rotator for 1 hour at room temperature. The tubes were then removed from the rotator and the aqueous and organic phases were allowed to separate for 1 hour. An aliquot of the organic layer was taken and diluted 200-fold into a mixture of 1:1 buffer:acetonitrile (ACN). An aliquot of the aqueous layer was taken and diluted 2-fold, 10-fold, and 200-fold into a mixture of 1:1 buffer:ACN. All samples were assayed by LC-MS/MS using electrospray ionization.

Aldose Reductase = Aldose Reductase (Homo sapiens, UniProt P15121); assay: Aldose reductase enzymatic inhibition (micro plate assay, D-glyceraldehyde and NADPH, absorbance at 340 nm); format: biochemical; settings: D-glyceraldehyde and NADPH as substrate; 0.1 nm to 10 uM
Method: Aldose Reductase Enzymatic Inhibition:
All compounds and Zopolrestat were tested individually in a micro plate assay for AR inhibition using D-glyceraldehyde and NADPH as substrate and the absorbance changes at 340 nm was monitored. % Inhibition was calculated for ARIs at concentration ranging 0.1 nm to 10 uM.

[2] = positive control, octanol/buffer pH 7.4; cited from earlier work

## O=C(O)Cc1nn(Cc2nc3cc(C(F)(F)F)ccc3s2)c(=O)c2c(Cl)sc(Cl)c12 [Compound VII, 2-(5,7-dichloro-4-oxo-3-((5-(trifluoromethyl)benzo[d]thiazol-2-yl)methyl)-3,4-dihydrothieno[3,4-d]pyridazin-1-yl)acetic acid]
other
  melting point: 205 to 207 °C

## O=C(O)Cc1nn(Cc2nc3cc(C(F)(F)F)ccc3s2)c(=O)c2cscc12 [Compound XII, 2-(4-oxo-3-((5-(trifluoromethyl)benzo[d]thiazol-2-yl)methyl)-3,4-dihydrothieno[3,4-d]pyridazin-1-yl)acetic acid]
[1]
  solubility: 970 µg/mL (≈ 2280 µM)
physchem
  logD: -0.09

## O=C(O)Cc1nn(Cc2nc3cc(F)ccc3s2)c(=O)c2cscc12 [Compound XIV, 2-(3-((5-fluorobenzo[d]thiazol-2-yl)methyl)-4-oxo-3,4-dihydrothieno[3,4-d]pyridazin-1-yl)acetic acid]
[1]
  solubility: 650 µg/mL (≈ 1730 µM)
physchem
  logD: -0.87
Aldose Reductase
  IC50: 60 nM
other
  melting point: 172 to 173 °C

## O=C(O)Cc1nn(Cc2nc3ccccc3s2)c(=O)c2cscc12 [Compound XVI, 2-(3-(benzo[d]thiazol-2-ylmethyl)-4-oxo-3,4-dihydrothieno[3,4-d]pyridazin-1-yl)acetic acid]
other
  melting point: 172 to 173 °C

## O=C(O)Cc1nn(Cc2nc3cc(Cl)ccc3s2)c(=O)c2cscc12 [Compound XX, 2-(3-((5-chlorobenzo[d]thiazol-2-yl)methyl)-4-oxo-3,4-dihydrothieno[3,4-d]pyridazin-1-yl)acetic acid]
[1]
  solubility: 590 µg/mL (≈ 1510 µM)
physchem
  logD: -0.35
Aldose Reductase
  IC50: 35 nM
other
  melting point: 184 to 185 °C

## CC(C)(C)OC(=O)Cc1nn(Cc2cc3cc(Cl)ccc3o2)c(=O)c2cscc12 [Compound XXIII, tert-butyl 2-(3-((5-chlorobenzofuran-2-yl)methyl)-4-oxo-3,4-dihydrothieno[3,4-d]pyridazin-1-yl)acetate]
other
  melting point: 117 to 118 °C

## O=C(O)Cc1nn(Cc2cc3cc(Cl)ccc3o2)c(=O)c2cscc12 [Compound XXIV, 2-(3-((5-chlorobenzofuran-2-yl)methyl)-4-oxo-3,4-dihydrothieno[3,4-d]pyridazin-1-yl)acetic acid]
other
  melting point: 154 to 155 °C

## O=C(O)Cc1nn(Cc2cc3ccccc3o2)c(=O)c2cscc12 [Compound XXVI, 2-(3-(benzofuran-2-ylmethyl)-4-oxo-3,4-dihydrothieno[3,4-d]pyridazin-1-yl)acetic acid]
[1]
  solubility: 790 µg/mL (≈ 2320 µM)
physchem
  logD: -0.86
Aldose Reductase
  IC50: 57 nM
other
  melting point: 158 to 159 °C

## C[C@]12CC[C@H]3[C@@H](CCC4=CC(=O)CC[C@@]43C)[C@@H]1CC[C@@H]2O [Testosterone]
[2]
  Log D (published/known): 3.0-3.4
